{"source": "patent US10406207B2", "about": "“Peptide conjugates of GLP-1 receptor agonists and gastrin and their use” (priority 2010, dated 2019)", "key": {"human CCK-B R": {"molecular_target": "T1, human CCK-B R (Homo sapiens, UniProt P32239)", "T1 construct": "expressed in transfected cells", "T1 sequence (P32239 1-447)": "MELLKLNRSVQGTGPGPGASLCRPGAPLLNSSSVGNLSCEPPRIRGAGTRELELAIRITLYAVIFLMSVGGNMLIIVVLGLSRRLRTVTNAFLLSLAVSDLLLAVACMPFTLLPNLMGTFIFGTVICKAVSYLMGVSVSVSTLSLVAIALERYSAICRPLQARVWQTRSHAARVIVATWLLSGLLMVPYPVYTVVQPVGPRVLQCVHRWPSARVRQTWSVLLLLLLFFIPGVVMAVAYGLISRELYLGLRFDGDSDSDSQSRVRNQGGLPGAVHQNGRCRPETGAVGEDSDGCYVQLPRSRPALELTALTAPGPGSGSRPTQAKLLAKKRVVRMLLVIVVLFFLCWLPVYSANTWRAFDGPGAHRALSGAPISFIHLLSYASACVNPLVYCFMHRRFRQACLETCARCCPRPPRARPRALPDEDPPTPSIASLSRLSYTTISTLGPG", "test": "Human CCK-B receptor efficacy assay (AlphaScreen SureFire p-ERK)", "type": "cell-based", "settings": "Table 2; read-out: hCCK-B R EC50"}, "human GLP-1 R": {"molecular_target": "T2, human GLP-1 R (Homo sapiens, UniProt P43220)", "T2 construct": "expressed in transfected cells", "T2 sequence (P43220 24-463)": "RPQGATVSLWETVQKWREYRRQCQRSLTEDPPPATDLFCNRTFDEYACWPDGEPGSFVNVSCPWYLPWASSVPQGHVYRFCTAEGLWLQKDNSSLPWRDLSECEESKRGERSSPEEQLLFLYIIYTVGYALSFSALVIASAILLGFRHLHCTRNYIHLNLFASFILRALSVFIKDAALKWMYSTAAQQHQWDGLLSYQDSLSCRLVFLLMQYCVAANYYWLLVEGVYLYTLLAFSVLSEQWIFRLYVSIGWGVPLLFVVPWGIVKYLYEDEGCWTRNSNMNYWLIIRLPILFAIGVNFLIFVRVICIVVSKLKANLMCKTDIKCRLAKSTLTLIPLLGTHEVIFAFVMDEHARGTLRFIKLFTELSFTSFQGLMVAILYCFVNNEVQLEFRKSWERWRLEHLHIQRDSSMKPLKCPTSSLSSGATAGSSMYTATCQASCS", "test": "Human GLP-1 receptor efficacy assay (cAMP induction, FlashPlate)", "type": "cell-based", "settings": "Table 2; read-out: hGLP-1 R EC50", "description": "On the day of analysis, growth medium was removed and the cells were washed once with 200 μl Tyrode buffer [Tyrode's Salts (9.6 g/l), 10 mM HEPES, pH 7.4]. […] The reaction was stopped by addition of 25 μl 0.5 M HCl and incubated on ice for 60 min."}, "in vivo": {"test": "in vivo", "set-up": "species or system C57Bl mice", "settings": "mouse, sc, 100 nmol/kg; for half-life: C57Bl", "description": "Two C57Bl mice were given a single subcutaneous dose of 100 nmol/kg of each peptide. […] At each time point, samples from two mice were taken. Plasma samples were analyzed after solid phase extraction (SPE) by liquid chromatography mass spectrometry (LC-MS/MS)."}}, "note": "pEC50: −log10 of the molar value. Bridge positions count the residues as written; N and C are the ends. Square brackets hold non-standard residues; d marks the D form. Peptide text beside a SMILES is read from it. AEEA = NCCOCCOCC(=O)O", "data": [{"molecule": "CC[C@H](C)[C@H](NC(=O)[C@H](Cc1ccccc1)NC(=O)[C@H](CC(C)C)NC(=O)[C@H](CCCNC(=N)N)NC(=O)[C@@H](NC(=O)[C@H](C)NC(=O)[C@H](CCC(=O)O)NC(=O)[C@H](CCC(=O)O)NC(=O)[C@H](CCC(=O)O)NC(=O)[C@H](CC(C)C)NC(=O)[C@H](Cc1ccc(O)cc1)NC(=O)[C@H](CCCCN)NC(=O)[C@H](CO)NC(=O)[C@H](CC(C)C)NC(=O)[C@H](CC(=O)O)NC(=O)[C@H](CO)NC(=O)[C@@H](NC(=O)[C@H](Cc1ccccc1)NC(=O)[C@@H](NC(=O)CNC(=O)[C@H](CCC(=O)O)NC(=O)CNC(=O)[C@@H](N)Cc1c[nH]cn1)[C@@H](C)O)[C@@H](C)O)C(C)C)C(=O)N[C@@H](CCC(=O)O)C(=O)N[C@@H](Cc1c[nH]c2ccccc12)C(=O)N[C@@H](CC(C)C)C(=O)N[C@@H](CCCCN)C(=O)NCCOCCOCC(=O)NCCOCCOCC(=O)N[C@@H](Cc1ccc(O)cc1)C(=O)NCC(=O)N[C@@H](Cc1c[nH]c2ccccc12)C(=O)N[C@@H](CC(C)C)C(=O)N[C@@H](CC(=O)O)C(=O)N[C@@H](Cc1ccccc1)C(N)=O", "note": "[Compound 74, [Tyr13,Leu14]Exendin-4(1-27)-Peg3-Peg3-[Leu4]Gastrin6] (H-HGEGTFTSDLSKYLEEEAVRLFIEWLK[AEEA][AEEA]YGWLDF-NH2)", "values": [{"measurement": "pEC50", "setting": "human CCK-B R", "value": 8.08}, {"measurement": "pEC50", "setting": "human GLP-1 R", "value": 10.30}, {"measurement": "half-life", "setting": "in vivo", "value": 3.6, "unit": "h"}, {"measurement": "Half-life and exposure (in words)", "setting": "in vivo", "value": "superior to the rest"}]}, {"molecule": "CC[C@H](C)[C@H](NC(=O)[C@H](Cc1ccccc1)NC(=O)[C@H](CC(C)C)NC(=O)[C@H](CCCNC(=N)N)NC(=O)[C@@H](NC(=O)[C@H](C)NC(=O)[C@H](CCC(=O)O)NC(=O)[C@H](CCC(=O)O)NC(=O)[C@H](CCC(=O)O)NC(=O)[C@H](CCSC)NC(=O)[C@H](Cc1ccc(O)cc1)NC(=O)[C@H](CCCCN)NC(=O)[C@H](CO)NC(=O)[C@H](CC(C)C)NC(=O)[C@H](CC(=O)O)NC(=O)[C@H](CO)NC(=O)[C@@H](NC(=O)[C@H](Cc1ccccc1)NC(=O)[C@@H](NC(=O)CNC(=O)[C@H](CCC(=O)O)NC(=O)CNC(=O)[C@@H](N)Cc1c[nH]cn1)[C@@H](C)O)[C@@H](C)O)C(C)C)C(=O)N[C@@H](CCC(=O)O)C(=O)N[C@@H](Cc1ccccc1)C(=O)N[C@@H](CC(C)C)C(=O)N[C@@H](CCCCN)C(=O)NCCOCCOCC(=O)NCCOCCOCC(=O)N[C@@H](Cc1ccc(O)cc1)C(=O)NCC(=O)N[C@@H](Cc1c[nH]c2ccccc12)C(=O)N[C@@H](CC(C)C)C(=O)N[C@@H](CC(=O)O)C(=O)N[C@@H](Cc1ccccc1)C(N)=O", "note": "[Compound 75, [Tyr13,Phe25]Exendin-4(1-27)-Peg3-Peg3-[Leu4]Gastrin6] (H-HGEGTFTSDLSKYMEEEAVRLFIEFLK[AEEA][AEEA]YGWLDF-NH2)", "values": [{"measurement": "pEC50", "setting": "human CCK-B R", "value": 8.08}, {"measurement": "pEC50", "setting": "human GLP-1 R", "value": 10.46}, {"measurement": "half-life", "setting": "in vivo", "value": 2.5, "unit": "h"}]}, {"molecule": "CC[C@H](C)[C@@H]1NC(=O)[C@H](Cc2ccccc2)NC(=O)[C@H](CC(C)C)NC(=O)[C@@H](NC(=O)[C@@H](NC(=O)[C@H](C)NC(=O)[C@H](CCC(=O)O)NC(=O)[C@H](CCC(=O)O)NC(=O)[C@H](CCC(=O)O)NC(=O)[C@H](CCSC)NC(=O)[C@H](CCC(N)=O)NC(=O)[C@H](CCCCN)NC(=O)[C@H](CO)NC(=O)[C@H](CC(C)C)NC(=O)[C@H](CC(=O)O)NC(=O)[C@H](CO)NC(=O)[C@@H](NC(=O)[C@H](Cc2ccccc2)NC(=O)[C@@H](NC(=O)CNC(=O)[C@H](CCC(=O)O)NC(=O)CNC(=O)[C@@H](N)Cc2c[nH]cn2)[C@@H](C)O)[C@@H](C)O)C(C)C)CCCCNC(=O)CC[C@@H](C(=O)N[C@@H](Cc2c[nH]c3ccccc23)C(=O)N[C@@H](CC(C)C)C(=O)N[C@@H](CCCCN)C(=O)N[C@@H](CC(N)=O)C(=O)NCCOCCOCC(=O)NCCOCCOCC(=O)N[C@@H](Cc2ccc(O)cc2)C(=O)NCC(=O)N[C@@H](Cc2c[nH]c3ccccc23)C(=O)N[C@@H](CC(C)C)C(=O)N[C@@H](CC(=O)O)C(=O)N[C@@H](Cc2ccccc2)C(N)=O)NC1=O", "note": "[Compound 80, Side chain-cyclo([Lys20,Glu24]Exendin-4(1-28)-Peg3-Peg3-[Leu4]Gastrin6] (H-HGEGTFTSDLSKQMEEEAVKLFIEWLKN[AEEA][AEEA]YGWLDF-NH2; lactam 20-24)", "values": [{"measurement": "pEC50", "setting": "human CCK-B R", "value": 8.40}, {"measurement": "pEC50", "setting": "human GLP-1 R", "value": 10.49}, {"measurement": "half-life", "setting": "in vivo", "value": 1.9, "unit": "h"}]}]}
